Source: BindingDB's records for doi:10.1021/jm401195n (Fudan University, 2013)

Molecular target: Indoleamine 2,3-dioxygenase 1 (Homo sapiens, UniProt P14902)
Experiment: Inhibition of human IDO1 expressed in HEK293 cells assessed as kynurenine release after 5 hrs by spectrophotometry

Chain of Indoleamine 2,3-dioxygenase 1 (P14902 whole entry): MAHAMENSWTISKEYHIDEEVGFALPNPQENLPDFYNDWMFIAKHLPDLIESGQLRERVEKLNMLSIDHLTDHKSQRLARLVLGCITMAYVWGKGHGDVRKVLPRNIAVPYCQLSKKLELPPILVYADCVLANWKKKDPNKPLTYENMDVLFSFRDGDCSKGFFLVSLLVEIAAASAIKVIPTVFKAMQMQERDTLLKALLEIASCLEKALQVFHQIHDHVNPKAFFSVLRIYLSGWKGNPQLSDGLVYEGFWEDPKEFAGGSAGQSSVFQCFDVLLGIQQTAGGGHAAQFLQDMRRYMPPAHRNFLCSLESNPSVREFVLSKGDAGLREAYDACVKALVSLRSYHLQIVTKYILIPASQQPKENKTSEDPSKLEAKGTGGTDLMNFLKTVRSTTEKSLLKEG

IC50: 18 pM
Compound: O=C1c2cc([N+](=O)[O-])ccc2-n2c1nc1ccccc1c2=O
